Experiments:
[1] = Inhibition of TNFalpha-induced human NFkappaB activity in HEK293 cells incubated for 6 hrs followed by compound wash out measured after 5 mins by luciferase assay; assay type: cell-based
[2] = Cytotoxicity against african green monkey COS1 cells assessed as cell survival at 50 uM relative to control; assay type: cell-based; settings: chlorocebus aethiops, COS-1 cells; read-out: Survival
HEK293 [3] = test: Inhibition of TNFalpha-induced human NFkappaB activity in HEK293 cells at 50 uM incubated for 6 hrs followed by compound wash out measured after 5 mins by luciferase assay; assay type: cell-based
[4] = Cytotoxicity against human HEK293 cells assessed as cell survival at 50 uM relative to control; assay type: cell-based; settings: read-out: Survival
[5] = target: T1, Retinoic acid receptor RXR-alpha (Homo sapiens, UniProt P19793); test: Agonist activity at human RXRalpha expressed in african green monkey COS1 cells assessed as induction of RXRE transcriptional activity after 12 hrs by luciferase reporter gene assay; assay type: functional, cell-based, COS-1
T1 sequence (P19793 whole entry): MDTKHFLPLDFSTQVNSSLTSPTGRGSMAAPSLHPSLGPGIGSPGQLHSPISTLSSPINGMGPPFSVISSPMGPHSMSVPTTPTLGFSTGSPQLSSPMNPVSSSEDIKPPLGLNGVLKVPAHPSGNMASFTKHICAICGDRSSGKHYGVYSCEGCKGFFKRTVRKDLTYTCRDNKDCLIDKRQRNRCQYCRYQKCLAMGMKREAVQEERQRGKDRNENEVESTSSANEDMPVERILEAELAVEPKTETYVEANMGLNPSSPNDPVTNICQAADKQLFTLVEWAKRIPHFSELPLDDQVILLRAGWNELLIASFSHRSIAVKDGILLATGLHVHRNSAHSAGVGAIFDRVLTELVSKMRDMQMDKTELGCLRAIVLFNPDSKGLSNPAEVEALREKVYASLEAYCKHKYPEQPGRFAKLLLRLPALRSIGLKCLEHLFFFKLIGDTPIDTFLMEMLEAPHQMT

[6] = target: T2, Retinoic acid receptor RXR-alpha (Homo sapiens) (UniProt P19793); test: Agonist activity at human RXRalpha expressed in african green monkey COS1 cells assessed as induction of RXRE transcriptional activity at 12.5 uM after 12 hrs by luciferase reporter gene assay relative to control; assay type: functional, cell-based; settings: COS-1
T2 sequence (whole entry): T1 sequence (P19793 whole entry)

[7] = Cytotoxicity against african green monkey COS1 cells assessed as cell survival at 40 uM relative to control; assay type: cell-based; settings: chlorocebus aethiops, COS-1 cells; read-out: Survival
HEK293 [8] = test: Cytotoxicity against human HEK293 cells; assay type: cell-based

SMILES: CNCCCn1c2c(c3ccc(N)cc3c1=O)C(O)c1ccccc1-2 (stereo not drawn)
- IC50 [1]: 0.6 µM
- viability at 50 µM [2]: 84.1%
- inhibition (HEK293 [3]): 83.7%
- viability at 50 µM [4]: 90.1%

SMILES: CC(=O)Nc1ccc2c3c(n(CCCN)c(=O)c2c1)-c1ccccc1C3=O
- EC50 [5]: > 41.4 µM
- fold change (FC) [6]: 3.55
- viability at 50 µM [2]: 74.5%
- inhibition (HEK293 [3]): 0%
- viability at 50 µM [4]: 122%

SMILES: O=C1c2ccccc2-c2c1c1ccc([N+](=O)[O-])cc1c(=O)n2CCCBr
- inhibition (HEK293 [3]): 21.8%
- viability at 40 µM [7]: 100%
- viability at 50 µM [4]: 118%

SMILES: CC(=O)Nc1ccc2c3c(n(CCCO)c(=O)c2c1)-c1ccccc1C3=O
- viability at 50 µM [2]: 90.6%
- inhibition (HEK293 [3]): 53.9%
- viability at 50 µM [4]: 128%

SMILES: Cc1ccc(S(=O)(=O)/C=C/C#N)cc1
- IC50 [1]: 2.01 µM

SMILES: CN(C)c1ccc2c3c(n(CCCNC(=O)OC(C)(C)C)c(=O)c2c1)-c1ccccc1C3=O
- viability at 50 µM [2]: 102%
- inhibition (HEK293 [3]): 25.9%
- viability at 50 µM [4]: 97.6%

SMILES: Cc1ccc(S(=O)(=O)N[C@@H](Cc2ccccc2)C(=O)CCl)cc1 [TPCK]
- IC50 [1]: 5.1 µM

SMILES: NCCCn1c2c(c3ccc(N)cc3c1=O)C(O)c1ccccc1-2 (stereo not drawn)
- viability at 50 µM [2]: 87.5%
- inhibition (HEK293 [3]): 53.1%
- viability at 50 µM [4]: < 50%

SMILES: O=C1c2ccccc2-c2c1c1ccc([N+](=O)[O-])cc1c(=O)n2CCCO
- IC50 [1]: 7.3 µM
- viability at 50 µM [2]: 91.4%
- inhibition (HEK293 [3]): 72.8%
- viability at 50 µM [4]: 114%

SMILES: CC(C)(C)OC(=O)NCCCn1c2c(c3ccc([N+](=O)[O-])cc3c1=O)C(=O)c1ccccc1-2
- viability at 50 µM [2]: 106%
- inhibition (HEK293 [3]): 0%
- viability at 50 µM [4]: 101%

SMILES: Nc1ccc2c3c(n(CCCO)c(=O)c2c1)-c1ccccc1C3=O
- viability at 50 µM [2]: 85.9%
- inhibition (HEK293 [3]): 53.2%
- viability at 50 µM [4]: 116%

SMILES: CC(=O)NCCCn1c2c(c3ccc([N+](=O)[O-])cc3c1=O)C(=O)c1ccccc1-2
- IC50 [1]: 38.8 µM
- viability at 50 µM [2]: 99.4%
- inhibition (HEK293 [3]): 87.4%
- viability at 50 µM [4]: 69.1%

SMILES: NCCCn1c2c(c3ccc([N+](=O)[O-])cc3c1=O)C(=O)c1ccccc1-2
- IC50 [1]: 2.6 µM
- viability at 50 µM [2]: < 50%
- inhibition (HEK293 [3]): 80.8%
- IC50 (HEK293 [8]): 16.9 µM
- viability at 50 µM [4]: < 50%

SMILES: CNCCCn1c2c(c3ccc(N)cc3c1=O)C(=O)c1ccccc1-2
- IC50 [1]: 39.8 µM
- fold change (FC) [6]: 8.97
- viability at 50 µM [2]: 64.5%
- inhibition (HEK293 [3]): 63.1%
- viability at 50 µM [4]: 117%

SMILES: CC(=O)Nc1ccc2c3c(n(CCCN=[N+]=[N-])c(=O)c2c1)-c1ccccc1C3=O
- viability at 50 µM [2]: 93.1%
- inhibition (HEK293 [3]): 0%
- viability at 50 µM [4]: 115%

SMILES: CN(C)c1ccc2c3c(n(CCCN)c(=O)c2c1)-c1ccccc1C3=O
- IC50 [1]: 32.3 µM
- viability at 50 µM [2]: < 50%
- inhibition (HEK293 [3]): 86.3%
- viability at 50 µM [4]: 110%

SMILES: Nc1ccc2c3c(n(CCCO)c(=O)c2c1)-c1ccccc1C3O (stereo not drawn)
- IC50 [1]: 49.3 µM
- viability at 50 µM [2]: 86.9%
- inhibition (HEK293 [3]): 57.8%
- viability at 50 µM [4]: 118%

SMILES: CNc1ccc2c3c(n(CCCNC(=O)OC(C)(C)C)c(=O)c2c1)-c1ccccc1C3O (stereo not drawn)
- IC50 [1]: 0.4 µM
- viability at 50 µM [2]: 67.5%
- inhibition (HEK293 [3]): 83.4%
- viability at 50 µM [4]: 90.1%

SMILES: CNc1ccc2c3c(n(CCCN)c(=O)c2c1)-c1ccccc1C3=O
- fold change (FC) [6]: 6.09
- viability at 50 µM [2]: < 50%
- inhibition (HEK293 [3]): 0%
- viability at 50 µM [4]: 99.4%

SMILES: C=C(c1ccc(C(=O)O)cc1)c1cc2c(cc1C)C(C)(C)CCC2(C)C [BEXAROTENE]
- viability at 40 µM [7]: 74.5%

SMILES: CNc1ccc2c3c(n(CCCN)c(=O)c2c1)-c1ccccc1C3O (stereo not drawn)
- IC50 [1]: 0.7 µM
- viability at 50 µM [2]: 63.6%
- inhibition (HEK293 [3]): 69.2%
- viability at 50 µM [4]: 95%

SMILES: CC(C)(C)OC(=O)NCCCn1c2c(c3ccc(N)cc3c1=O)C(=O)c1ccccc1-2
- viability at 50 µM [2]: 104%
- inhibition (HEK293 [3]): 0%
- viability at 50 µM [4]: 107%

SMILES: CNc1ccc2c3c(n(CCCNC(=O)OC(C)(C)C)c(=O)c2c1)-c1ccccc1C3=O
- viability at 50 µM [2]: 94.8%
- inhibition (HEK293 [3]): 53.9%
- viability at 50 µM [4]: 68.6%

SMILES: CC(=O)NCCCn1c2c(c3ccc(N)cc3c1=O)C(=O)c1ccccc1-2
- EC50 [5]: 20.9 µM
- IC50 [1]: 14.4 µM
- fold change (FC) [6]: 3.52
- viability at 50 µM [2]: 75.2%
- inhibition (HEK293 [3]): 81.8%
- viability at 50 µM [4]: 106%

SMILES: Nc1ccc2c3c(n(CCCCl)c(=O)c2c1)-c1ccccc1C3=O
- viability at 50 µM [2]: 102%
- inhibition (HEK293 [3]): 0%
- viability at 50 µM [4]: 91.4%

SMILES: CNCCCn1c2c(c3ccc([N+](=O)[O-])cc3c1=O)C(=O)c1ccccc1-2
- IC50 [1]: 3.7 µM
- viability at 50 µM [2]: < 50%
- inhibition (HEK293 [3]): 92.4%
- viability at 50 µM [4]: 79.7%

SMILES: CC(=O)Nc1ccc2c3c(n(CCCN)c(=O)c2c1)-c1ccccc1C3O (stereo not drawn)
- viability at 50 µM [2]: 83.7%
- inhibition (HEK293 [3]): 0%
- viability at 50 µM [4]: 99.2%
